Experiments:
human sEH [1] = biological target: T1, human sEH (Homo sapiens, UniProt P34913); assay: Human soluble EH activity in lysates of Sf21 cells infected with recombinant AcNPV, TSO and CSO as substrates; assay type: biochemical; conditions: for inhibition at 62.5 µM: preincubation of lysates from human sEH expressing cells with inhibitor (62.5 μM, Table II), read-out: inhibition of the hydrolysis of TSO and CSO
T1 construct: made in house; host or cells: Spodoptera frugiperda Sf21 cells infected with recombinant AcNPV (AchsEH1)
T1 sequence (P34913 1-555): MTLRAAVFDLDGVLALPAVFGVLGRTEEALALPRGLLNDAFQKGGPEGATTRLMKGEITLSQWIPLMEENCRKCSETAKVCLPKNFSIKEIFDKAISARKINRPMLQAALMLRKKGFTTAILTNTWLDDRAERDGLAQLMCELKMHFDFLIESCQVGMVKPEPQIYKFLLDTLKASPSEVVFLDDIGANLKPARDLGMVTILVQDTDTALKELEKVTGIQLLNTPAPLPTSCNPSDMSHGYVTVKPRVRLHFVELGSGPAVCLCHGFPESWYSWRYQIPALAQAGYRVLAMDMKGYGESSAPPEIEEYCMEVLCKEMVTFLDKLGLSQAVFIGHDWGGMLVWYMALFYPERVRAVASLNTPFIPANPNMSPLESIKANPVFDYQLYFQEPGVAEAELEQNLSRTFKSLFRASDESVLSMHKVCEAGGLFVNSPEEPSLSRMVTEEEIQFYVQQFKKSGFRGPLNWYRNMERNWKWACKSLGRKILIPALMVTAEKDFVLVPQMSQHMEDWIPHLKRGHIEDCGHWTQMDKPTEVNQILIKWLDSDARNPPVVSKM
Description: To obtain recombinant baculovirus, Spodoptera frugiperda 21 (Sf21) insect cells are cotransfected with plasmid pAcUW21-hsEH plus linearized DNA (AcRP6-SC) of Autographa californica nuclear polyhedrosis virus (AcNPV). […] The resulting virus plaque is purified as described by O'Reilly, D. R., et al., in Baculovirus Expresssion Vectors. A Labortory Manual, p. […] Cultures of Sf21 cells are then infected with recombinant AcNPV containing the human sEH sequence or with control AcNPV. Uninfected cultures are also maintained. Cultures are maintained 4 to 5 days post infection before harvesting proteins. For extraction of proteins, cells are washed (three times in 90 mM NaHPO4 pH7.4) then lysed (in 90 mM NaHPO4 pH7.4, 1 mM EDTA, 1 mM phenylmethylsulfonyl fluoride) by 3 cycles of freeze thawing (dry ice ethanol and 37° C. H2 O baths).
A., and B. D. Hammock in Arch. […] Biochem. Biophys.

sEH = conditions: inhibits only very weakly other enzymes that catalyze hydrolysis or conjugation of epoxides; Mullin and Hammock 1982, Prestwich 1985; cited from earlier work
[2] = system: sEH of various species (mouse, rabbit, primate); conditions: Dietze et al. 1991, 1993, read-out: I50; cited from earlier work
murine sEH = biological target: T2, murine sEH (Mus musculus, UniProt P34914); assay: Epoxide hydrolase activity (TSO partition assay) in extracts of COS-7 cells transfected with murine sEH expression vector; assay type: biochemical; conditions: psEH-pJ3omega transfected COS-7 cells + t-ENPG 1 mM final concentration
T2 construct: A primer pair to amplify the entire coding region is; expressed in transfected cells; host or cells: COS-7
T2 sequence (P34914 1-554): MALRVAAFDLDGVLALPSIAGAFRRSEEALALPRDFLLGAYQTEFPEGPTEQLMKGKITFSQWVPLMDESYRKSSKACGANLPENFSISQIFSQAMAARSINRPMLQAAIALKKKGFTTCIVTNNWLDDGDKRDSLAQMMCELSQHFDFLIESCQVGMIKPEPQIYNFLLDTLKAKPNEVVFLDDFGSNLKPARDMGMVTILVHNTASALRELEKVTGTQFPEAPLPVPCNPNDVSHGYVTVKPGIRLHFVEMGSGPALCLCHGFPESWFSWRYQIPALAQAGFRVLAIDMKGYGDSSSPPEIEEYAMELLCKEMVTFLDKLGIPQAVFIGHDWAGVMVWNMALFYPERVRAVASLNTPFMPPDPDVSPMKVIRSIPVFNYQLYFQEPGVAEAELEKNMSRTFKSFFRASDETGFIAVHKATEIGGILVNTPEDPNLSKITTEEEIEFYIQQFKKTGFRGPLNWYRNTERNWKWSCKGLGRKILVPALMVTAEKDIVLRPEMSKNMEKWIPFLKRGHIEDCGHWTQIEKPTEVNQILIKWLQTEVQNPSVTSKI
Method: (§1) To detect soluble epoxide hydrolase activity or to monitor its relative purity, one uses the partition assay of Wixtrom, R. N., and B. D. Hammock in Biochemical Pharmacoloyt and Toxicology (Zakim, D., and Vessey, D. A., Eds), Vol. 1, pp. 1-93. Wiley, New York ([…]) with [^3 H]-trans-stilbene oxide ([^3 H]TSO) as substrate, incorporated herein by reference. In brief this assay entails: coincubating the enzyme with radiolabled substrate that is much more soluble in organic than aqueous solutions. Next, the enzyme substrate is extracted with organic solvent such that the substrate partitions into the organic phase but the more polar and water-soluble product (a vicinal diol) partitions to the aqueous phase. An aliquot of the aqueous phase is then analyzed for concentration of product by quantification of radioactivity. The substrate [^3 H]TSO is prepare by the method described by Gill, S. S., et al., in Anal. Biochem., 131:273-282 (1993) incorporated herein by reference.
cos-7 cells are grown as a monolayer culture in Dulbecco's modified Eagle's medium (ICN) containing 10% fetal calf serum (ICN) plus penicillin G (100 U/ml) and streptomycin sulfate (100 ug/ml). Cell transfections are mediated by lipofectin (Gibco) according to standard protocol. Approximately 1×10^6 cells are transfected in 100 mm dishes with 5 ug of murine sEH-pJ3omega, 5 ug pJ3omega vector control or a mock transfection control containing lipofectin only (60 ul/plate). All transfections except the mock transfection control contain 2.5 ug of the beta-galactosidase plasmid, pSV-beta-Gal (Promega) can be used as an internal positive control. After 36 hours, cells are washed 5 times with PBS and collected by scraping into 1.5 ml centrifuge tubes. The cells are then pelleted (12 k×g, 4° C., 30 seconds), resuspended in 150 ul of lysis buffer (40 mM tris, pH 8.0, 150 mM NaCl, 0.2 mM PMSF, 1 mM EDTA) and lysed by 3 cycles of freezing and thawing. The cells are again centrifuged and the supernatant used for enzyme assays and protein determination. […]

[3] = system: basal sEH activity of COS-7 cells; assay: Basal epoxide hydrolase activity (TSO) in extracts of vector-control or mock transfected COS-7 cells; assay type: biochemical, monkey
Method: as §1
cos-7 cells are grown as a monolayer culture in Dulbecco's modified Eagle's medium (ICN) containing 10% fetal calf serum (ICN) plus penicillin G (100 U/ml) and streptomycin sulfate (100 ug/ml). Cell transfections are mediated by lipofectin (Gibco) according to standard protocol. Approximately 1×10^6 cells are transfected in 100 mm dishes with 5 ug of murine sEH-pJ3omega, 5 ug pJ3omega vector control or a mock transfection control containing lipofectin only (60 ul/plate). All transfections except the mock transfection control contain 2.5 ug of the beta-galactosidase plasmid, pSV-beta-Gal (Promega) can be used as an internal positive control. After 36 hours, cells are washed 5 times with PBS and collected by scraping into 1.5 ml centrifuge tubes. The cells are then pelleted (12 k×g, 4° C., 30 seconds), resuspended in 150 ul of lysis buffer (40 mM tris, pH 8.0, 150 mM NaCl, 0.2 mM PMSF, 1 mM EDTA) and lysed by 3 cycles of freezing and thawing. The cells are again centrifuged and the supernatant used for enzyme assays and protein determination. Beta-galactosidase is assayed as described (Sambrook et al., 1989). sEH activity is assayed using TSO as described by the method of Wixtrom, R. N. and B. D. Hammock in Biochemical Pharmacology and Toxicology, (Zakim, D. and Vessey, D. A., ed.) 1:1-93 (1985).
The functional analysis of recombinant murine sEH expressed in COS-7 cells was performed following the methods described above. […] Transfected cells expressed approximately the same level of sEH activity as did mock transfected cells when 1 mM t-ENPG was included in the enzyme assay. […] The differences in specific activity among the experiments in Table I are most likely due to differences in cell density during transfections.
As well as detecting the transiently expressed sEH, the anti-rhesus-sEH antiserum also detected a protein that migrates identically with mouse sEH.

[4] = system: monkey and murine microsomal EH; conditions: at 2 mM; cited from earlier work
soluble EH = conditions: at 8 uM; cited from earlier work
human sEH [5] = biological target: T1, human sEH; assay: Heat lability of expressed human sEH; assay type: biochemical; conditions: enzyme assay mixture preincubated 15 min at 65° C.
[6] = AchsEH1 infected Sf21 lysate, inhibitor 62.5 μM, ND = no activity detected where 0.65 was distinguishable above background

O=C(c1ccccc1)C1OC1c1ccc(F)cc1 (centres unmarked) [4FCO, 4-fluorochalcone oxide]
inhibition at 62.5 µM (human sEH [1]): 100%
selectivity for sEH (sEH): very selective inhibitor of sEH

O=[N+]([O-])c1ccc([C@@H]2O[C@H]2CO)cc1 [SSNPG, (2S,3S)-3-(4-nitrophenyl) glycidol]
specific activity remaining with inhibitor, substrate TSO (human sEH [1]; [6]): 5.73 (0.56) nmoles TSO or CSO converted to
inhibition at 62.5 µM (human sEH [1]): 73%
IC50 [2]: 1 to 10 µM

O=[N+]([O-])c1ccc([C@H]2O[C@@H]2CO)cc1 [RRNPG, (2R,3R)-3-(4-nitrophenyl) glycidol]
specific activity remaining with inhibitor, substrate CSO (human sEH [1]; [6]): 19.8 (1.26) nmoles TSO or CSO converted to
inhibition at 62.5 µM (human sEH [1]): 39%
IC50 [2]: > 690 µM

O=[N+]([O-])c1ccc([C@@H]2O[C@H]2CO)cc1 [t-ENPG, trans2(S),3(S)-epoxy-3-(4-nitrophenyl) glycidol]
Epoxide hydrolase activity (±S.D.) remaining with inhibitor (murine sEH; Experiment 1): 76 ± 20 pmol·min/mg
Epoxide hydrolase activity (±S.D.) remaining with inhibitor (murine sEH; Experiment 2): 109 ± 4 pmol·min/mg
Epoxide hydrolase activity (±S.D.) remaining with inhibitor (murine sEH; Experiment 3): 134 ± 6 pmol·min/mg
Epoxide hydrolase activity (±S.D.) remaining with inhibitor ([3]; Experiment 1, mock transfected COS-7 cells + t-ENPG 1 mM): 74 ± 6 pmol·min/mg
Epoxide hydrolase activity (±S.D.) remaining with inhibitor ([3]; Experiment 1, pJ3omega vector control transfected COS-7 cells + t-ENPG 1 mM): 69 ± 6 pmol·min/mg
Epoxide hydrolase activity (±S.D.) remaining with inhibitor ([3]; Experiment 2, mock transfected COS-7 cells + t-ENPG 1 mM): 106 ± 5 pmol·min/mg
Epoxide hydrolase activity (±S.D.) remaining with inhibitor ([3]; Experiment 2, pJ3omega vector control transfected COS-7 cells + t-ENPG 1 mM): 97 ± 4 pmol·min/mg
Epoxide hydrolase activity (±S.D.) remaining with inhibitor ([3]; Experiment 3, mock transfected COS-7 cells + t-ENPG 1 mM): 88 ± 2 pmol·min/mg
Epoxide hydrolase activity (±S.D.) remaining with inhibitor ([3]; Experiment 3, pJ3omega vector control transfected COS-7 cells + t-ENPG 1 mM): 113 ± 8 pmol·min/mg
inhibition of microsomal EH [4]: ≤ 23%
inhibition of soluble EH (soluble EH): ≥ 50%

B1: expressed human sEH: recombinant human soluble epoxide hydrolase (Seq ID No.2) expressed in Sf21 cells (protein)
chain: MTLRGAVFDLDGVLALPAVFGVLGRTEEALALPRGLLNDAFQKGGPEGATTRLMKGEITLSQWIPLMEENCRKCSETAKVCLPKNFSIKEIFDKAISARKINRPMLQAALMLRKKGFTTAILTNTWLDDRAERDGLAQLMCELKMHFDFLIESCQVGMVKPEPQIYKFLLDTLKASPSEVVFLDDIGANLKPARDLGMVTILVQDTDTALKELEKVTGIQLLNTPAPLPTSCNPSDMSHGYVTVKPRVRLHFVELGWPAVCLCHGFPESWYSWRYQIPALAQAGYRVLAMDMKGYGESSAPPEIEEYCMEVLCKEMVTFLDKLGLSQAVFIGHDWGGMLVWYMALFYPERVRAVASLNTPFIPANPNMSPLESIKANPVFDYQLYFQEPGVAEAELEQNLSRTFKSLFRASDESVLSMHKVCEAGGLFVNSPEEPSLSRMVTEEEIQFYVQQFKKSGFRGPLNWYRNMERNWKWACKSLGRKILIPALMVTAEKDFVLVPQMSQHMEDWIPHLKRGHIEDCGHWTQMDKPTEVNQILIKWLDSDARNPPVVSKM
inhibition of activity by heat (heat lability) (human sEH [5]): 100%

Reference: patent US5445956A, “Recombinant soluble epoxide hydrolase” (The Regents of the University of California, priority 1993, dated 1995)
